Measured values: PubChem BioAssay AID248 (DTP/NCI, 2004)
Values joined by “and” are separate entries in the source; they are usually repeats but may differ in a detail not shown here. Equal values may be shown once. Toxic doses and inconclusive results are not listed.

Tested on: L1210 leukemia ip in BDF1 mice, survival T/C
Experiment: NCI In Vivo Anticancer Drug Screen. Data for tumor model L1210 Leukemia (intraperitoneal) in B6D2F1 (BDF1) mice
Conditions: endpoint: mean survival time, higher = longer survival
In short: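 Each compound was tested against a transplantable tumor grown in mice. The endpoint was survival, with treated animals benchmarked against vehicle controls as a simple ratio.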

[1] = dose: 75.0 mg/kg/injection, schedule: Q01DX001 (ip), vehicle: saline
[2] = dose: 150.0 mg/kg/injection, schedule: Q01DX001 (ip), vehicle: saline
[3] = dose: 100.0 mg/kg/injection, schedule: Q01DX001 (ip), vehicle: saline
[4] = dose: 200.0 mg/kg/injection, schedule: Q01DX001 (ip), vehicle: saline
[5] = dose: 400.0 mg/kg/injection, schedule: Q01DX001 (ip), vehicle: saline
[6] = dose: 100.0 mg/kg/injection, schedule: Q01DX009 (ip), vehicle: saline with Tween-80
[7] = dose: 100.0 mg/kg/injection, schedule: Q04DX003 (ip), vehicle: saline with Tween-80
[8] = dose: 200.0 mg/kg/injection, schedule: Q04DX003 (ip), vehicle: saline with Tween-80
[9] = dose: 100.0 mg/kg/injection, schedule: Q01DX009 (ip), vehicle: Klucel (hydroxypropylcellulose) (HPC)
[10] = dose: 200.0 mg/kg/injection, schedule: Q01DX009 (ip), vehicle: Klucel (hydroxypropylcellulose) (HPC)
[11] = dose: 400.0 mg/kg/injection, schedule: Q01DX009 (ip), vehicle: Klucel (hydroxypropylcellulose) (HPC)
[12] = dose: 100.0 mg/kg/injection, schedule: Q01DX001 (ip), vehicle: Klucel (hydroxypropylcellulose) (HPC)
[13] = dose: 200.0 mg/kg/injection, schedule: Q01DX001 (ip), vehicle: Klucel (hydroxypropylcellulose) (HPC)
[14] = dose: 100.0 mg/kg/injection, schedule: Q01DX001 (ip), vehicle: carboxymethylcellulose (CMC)
[15] = dose: 200.0 mg/kg/injection, schedule: Q01DX001 (ip), vehicle: carboxymethylcellulose (CMC)
[16] = dose: 400.0 mg/kg/injection, schedule: Q01DX001 (ip), vehicle: carboxymethylcellulose (CMC)
[17] = dose: 100.0 mg/kg/injection, schedule: Q04DX003 (ip), vehicle: Klucel (hydroxypropylcellulose) (HPC)
[18] = dose: 200.0 mg/kg/injection, schedule: Q04DX003 (ip), vehicle: Klucel (hydroxypropylcellulose) (HPC)
[19] = dose: 400.0 mg/kg/injection, schedule: Q04DX003 (ip), vehicle: Klucel (hydroxypropylcellulose) (HPC)
[20] = dose: 50.0 mg/kg/injection, schedule: Q01DX009 (ip), vehicle: saline
[21] = dose: 100.0 mg/kg/injection, schedule: Q01DX009 (ip), vehicle: saline
[22] = dose: 100.0 mg/kg/injection, schedule: Q04DX003 (ip), vehicle: saline
[23] = dose: 200.0 mg/kg/injection, schedule: Q01DX009 (ip), vehicle: saline
[24] = dose: 200.0 mg/kg/injection, schedule: Q04DX003 (ip), vehicle: saline
[25] = dose: 400.0 mg/kg/injection, schedule: Q04DX003 (ip), vehicle: saline
[26] = dose: 100.0 mg/kg/injection, schedule: Q04DX002 (ip), vehicle: Klucel (hydroxypropylcellulose) (HPC)
[27] = dose: 200.0 mg/kg/injection, schedule: Q04DX002 (ip), vehicle: Klucel (hydroxypropylcellulose) (HPC)
[28] = dose: 50.0 mg/kg/injection, schedule: Q01DX009 (ip), vehicle: saline with Tween-80

SMILES: CCCCCCCCCCCCCCCCCC(=O)NCCCNC(=O)CCCCCCCCCCCCCCCCC
- T/C [1]: 98 % of control
- T/C [2]: 95 % of control
- T/C (dose: 300.0 mg/kg/injection, schedule: Q01DX001 (ip), vehicle: saline): 106 % of control

SMILES: c1ccc(-c2nc3nncn3nc2-c2ccccc2)cc1
- T/C [3]: 94 % of control
- T/C [4]: 99 % of control
- T/C [5]: 98 % of control

SMILES: Nc1cn(C2OC(CO)C(O)C2O)c(=O)[nH]c1=O (stereo unspecified)
- T/C [3]: 97 % of control
- T/C [4]: 124 % of control
- T/C [5]: 100 % of control

SMILES: Fc1c(F)c(F)c(Oc2c(F)c(F)c(C(F)(F)F)c(F)c2F)c(F)c1F
- T/C [6]: 102 % of control
- T/C [7]: 94 % of control
- T/C (dose: 200.0 mg/kg/injection, schedule: Q01DX009 (ip), vehicle: saline with Tween-80): 98 % of control
- T/C [8]: 92 % of control
- T/C (dose: 400.0 mg/kg/injection, schedule: Q01DX009 (ip), vehicle: saline with Tween-80): 98 % of control
- T/C (dose: 400.0 mg/kg/injection, schedule: Q04DX003 (ip), vehicle: saline with Tween-80): 92 % of control

SMILES: Cc1ccc(C(C)C)cc1N1C(=O)C2C(C1=O)C1(Cl)C(Cl)=C(Cl)C2(Cl)C1(Cl)Cl (stereo unspecified)
- T/C [9]: 92 % of control
- T/C [10]: 97 % of control
- T/C [11]: 91 % of control

SMILES: O=C1c2ccccc2C(=O)N1CCCCCCCCCCCCCCN1C(=O)c2ccccc2C1=O
- T/C [12]: 94 % of control
- T/C [13]: 94 % of control

SMILES: CCOC(=O)CC(=O)NC(C)(CCOCc1ccccc1)C(=O)OCC (stereo unspecified)
- T/C (dose: 50.0 mg/kg/injection, schedule: Q01DX001 (ip), vehicle: carboxymethylcellulose (CMC)): 101 % of control
- T/C [14]: 103 % of control
- T/C [15]: 110 % of control
- T/C [16]: 103 % of control

SMILES: N#CCc1[nH]nc(N)c1C#N
- T/C [9]: 95 % of control
- T/C [17]: 89 % of control
- T/C [10]: 102 % of control
- T/C [18]: 93 % of control
- T/C [11]: 96 % of control
- T/C [19]: 91 % of control

SMILES: CC1CCC(NC(=O)N(CCF)N=O)CC1 (stereo unspecified)
- T/C (dose: 8.0 mg/kg/injection, schedule: Q01DX001 (ip), vehicle: other): 115 % of control
- T/C (dose: 26.0 mg/kg/injection, schedule: Q01DX001 (ip), vehicle: other): 433 % of control
- T/C (dose: 40.0 mg/kg/injection, schedule: Q01DX001 (ip), vehicle: other): 500 % of control
- T/C (dose: 60.0 mg/kg/injection, schedule: Q01DX001 (ip), vehicle: other): 437 % of control

SMILES: Nc1nc2c(c(-c3ccc(Cl)cc3)n1)CN(Cc1ccccc1)C2=O
- T/C [20]: 98 % of control
- T/C [21]: 104 % of control
- T/C [22]: 101 % of control
- T/C [23]: 106 % of control
- T/C [24]: 100 % of control
- T/C [25]: 89 % of control

SMILES: CC1(C)Cc2ccccc2C(c2ccccn2)=N1
- T/C [17]: 96 % of control
- T/C [18]: 112 % of control
- T/C [19]: 112 % of control

SMILES: CCNC(=O)N1CC2CCC(C1)N2C
- T/C [22]: 113 % of control
- T/C [24]: 106 % of control
- T/C [25]: 98 % of control

SMILES: CCOC(=O)c1ccc(=O)n(C(C)C)c1
- T/C [9]: 104 % of control
- T/C [10]: 98 % of control
- T/C [11]: 102 % of control

SMILES: CCOC(=O)Nc1cc(Cl)ccc1OC
- T/C [9]: 107 % of control
- T/C [10]: 91 % of control
- T/C [11]: 93 % of control

SMILES: Nc1nc(N)nc(COc2ccccc2Cl)n1
- T/C [26]: 119 % of control
- T/C [27]: 90 % of control

SMILES: Cc1ccc2c(c1)P(O)(=S)c1cc(F)ccc1O2 (stereo unspecified)
- T/C [20]: 113 % of control
- T/C [21]: 103 % of control
- T/C [23]: 110 % of control

SMILES: COC(=O)C(=O)CC(=O)c1ccccc1
- T/C [26]: 116 % of control
- T/C [27]: 106 % of control
- T/C (dose: 400.0 mg/kg/injection, schedule: Q04DX002 (ip), vehicle: Klucel (hydroxypropylcellulose) (HPC)): 118 % of control

SMILES: C=CC(=O)OCC(C)([N+](=O)[O-])[N+](=O)[O-]
- T/C [28]: 103 % of control
- T/C [6]: 97 % of control
- T/C [7]: 103 % of control
- T/C [8]: 96 % of control

SMILES: CCOC(=O)C(OCC)c1ccccc1 (stereo unspecified)
- T/C [22]: 97 % of control
- T/C [24]: 101 % of control
- T/C [25]: 89 % of control

SMILES: CCCCCCC(/C=N\NC(=O)c1cccc2ccccc12)=C\c1ccccc1
- T/C [4]: 97 % of control

SMILES: NS(=O)(=O)c1ccc(S(=O)(=O)NC2CCCCC2)cc1
- T/C [9]: 101 % of control
- T/C [10]: 101 % of control

SMILES: CCOC(=O)C(=N\Nc1ccccc1OC)/C(C)=N\NC(N)=S
- T/C (dose: 75.0 mg/kg/injection, schedule: Q01DX001 (ip), vehicle: acetone): 93 % of control
- T/C (dose: 150.0 mg/kg/injection, schedule: Q01DX001 (ip), vehicle: acetone): 90 % of control
- T/C [2]: 94 % of control

SMILES: O=C(O)c1ccccc1Nc1ccccc1
- T/C [12]: 102 % of control
- T/C [13]: 102 % of control
- T/C (dose: 400.0 mg/kg/injection, schedule: Q01DX001 (ip), vehicle: Klucel (hydroxypropylcellulose) (HPC)): 97 % of control

SMILES: COc1ccc([N+](=O)[O-])cc1NC(=O)c1cccc(Cl)c1
- T/C [9]: 114 % of control
- T/C [10]: 98 % of control
- T/C [11]: 102 % of control

SMILES: CC1(C)N=C(N)N=C(N)N1c1ccc(CCCC(=O)Nc2cccc(S(=O)(=O)F)c2)cc1
- T/C [3]: 105 % of control and 89 % of control
- T/C [4]: 103 % of control

SMILES: O=C(Cc1ccccc1)Nc1ccc([N+](=O)[O-])cc1Cl
- T/C (dose: 25.0 mg/kg/injection, schedule: Q01DX009 (ip), vehicle: saline with Tween-80): 103 % of control
- T/C [28]: 103 % of control
- T/C [6]: 94 % of control and 100 % of control
- T/C (dose: 100.0 mg/kg/injection, schedule: Q04DX002 (ip), vehicle: saline with Tween-80): 104 % of control
- T/C (dose: 150.0 mg/kg/injection, schedule: Q01DX009 (ip), vehicle: saline with Tween-80): 92 % of control
- T/C (dose: 200.0 mg/kg/injection, schedule: Q04DX002 (ip), vehicle: saline with Tween-80): 101 % of control
- T/C (dose: 225.0 mg/kg/injection, schedule: Q01DX009 (ip), vehicle: saline with Tween-80): 97 % of control
- T/C (dose: 335.0 mg/kg/injection, schedule: Q01DX009 (ip), vehicle: saline with Tween-80): 103 % of control
- T/C (dose: 400.0 mg/kg/injection, schedule: Q04DX002 (ip), vehicle: saline with Tween-80): 96 % of control

SMILES: Nc1nc(N)c(-c2ccc(Cl)cc2)c(C=O)n1
- T/C [14]: 108 % of control
- T/C [15]: 87 % of control
- T/C [16]: 108 % of control

SMILES: Cc1ccc(S(=O)(=O)N2CCc3ccccc3C3(C2)OCCO3)cc1
- T/C [14]: 96 % of control
- T/C [15]: 96 % of control
- T/C [16]: 98 % of control

SMILES: CCN(CC)CCNCCCS(=O)(=O)c1ccc(NC(C)=O)cc1
- T/C [3]: 97 % of control
- T/C [4]: 97 % of control
- T/C [5]: 97 % of control

SMILES: CC(=O)c1ccccc1C(C)c1ccc2cccc(F)c2c1 (stereo unspecified)
- T/C (dose: 75.0 mg/kg/injection, schedule: Q01DX001 (ip), vehicle: Klucel (hydroxypropylcellulose) (HPC)): 96 % of control
- T/C (dose: 150.0 mg/kg/injection, schedule: Q01DX001 (ip), vehicle: Klucel (hydroxypropylcellulose) (HPC)): 100 % of control
- T/C (dose: 300.0 mg/kg/injection, schedule: Q01DX001 (ip), vehicle: Klucel (hydroxypropylcellulose) (HPC)): 102 % of control

SMILES: CC(C)c1ccc(NC(=O)c2ccc(Cl)c(Cl)c2)cc1
- T/C [9]: 98 % of control
- T/C [10]: 91 % of control
- T/C [11]: 93 % of control

SMILES: O/N=c1/cc(-c2cccs2)ss1
- T/C [20]: 86 % of control
- T/C [21]: 86 % of control
- T/C [22]: 87 % of control
- T/C [23]: 98 % of control
- T/C [24]: 95 % of control
- T/C [25]: 95 % of control

SMILES: CCOC(=O)c1ccc2ccccc2n1
- T/C [1]: 109 % of control
- T/C [2]: 96 % of control

SMILES: O=C(O)c1cc2ccccc2c2c1ccc1ccccc12
- T/C (dose: 50.0 mg/kg/injection, schedule: Q01DX001 (ip), vehicle: Klucel (hydroxypropylcellulose) (HPC)): 92 % of control
- T/C [12]: 93 % of control
- T/C [13]: 93 % of control
